From US4711898A, “4-quinolone derivatives having anti-inflammatory, anti-allergic, antitussive, expectorant and antithrombotic activity” (Nippon Shinyaku Co., Ltd., priority 1982, dated 1987)

What follows are compounds tested on passive cutaneous anaphylaxis (DNP-As homocytotropic antiserum) (assay: passive cutaneous anaphylatic assay (PCA) in rats). Details: 10 mg/kg orally, one hour before antigen, listed as 2,4-Dichloro, Na salt.
Type: in vivo, Wistar strain rats
Method: (§1) The compounds of the present invention have been evaluated for their anti-allergenic action by passive cutaneous anaphylatic assay (PCA) in rats and by measuring the anti-SRS-A action using ileus of guinea pigs.
(i) Antiserum abundant in homocytotropic antibody is prepared by the same method as Tada and Okumura did (cf. Journal of Immunology, vol. 106, page 1002, 1971). Thus, 1 mg (calculated as an amount of protein) of DNP-As (2,4-dinitrophenylcoupled ascaris extract) prepared by methods of Strejan and Campbell (Journal of Immunology, vol. 98, p. 893, 1967) and of Eisen (Journal of Amer. Chem. Soc., vol. 75, p 4593, 1953) and 1×10^10pertussis vaccine are administered to each paw of Wistar strain rats (180 to 200 grams body weights) by dividing the dose by four. Five days later, 0.5 mg of DNP-As is administered into muscle of back. Eight days later from the initial immunization, blood is taken from discending aorta under anesthetizing with ether, the resulting serum is stored at -80° and is melted before use.
(ii) Effect of tested compounds is investigated as follows:
Anti-serum obtained by th method (i) is diluted with physiological saline solution double by double successively and 0.05 ml of each diluted solution is administered into the back of Wistar strain rats (140 to 160 grams body weight) intradermally. After 72 hours, a solution of 2 mg (calculated as protein) of DNP-As and 2.5 mg of Evans Blue dissolved in 1 ml of physiological saline solution is administered intraveously at a dose of 5 ml/kg. After 30 minutes from the antigen solution administration, the animals are killed and the diameters of blue spots which appeared at the place where antiserum was administered were measured. The PCA test is conducted by the same method as already described using a diluted solutions of antiserum which always show 10 mm or more of spot diameters and the effect of the test compounds is judged. Thus antiserum diluted solutions are administered into two places in the back. Test compounds are administered orally at the dose of 10 mg/kg one hour before administration of the antigen solution. From the skin of reacted parts of killed animals, leaked or emitted dyestuff is extracted and the amount of the dyestuff is measured. The inhibition ratio is calculated by the following expression: [formula] in which A' is an amount of dyestuff in the group treated with the test compounds and A is that in the control group.

SMILES | PCA Inhibition Ratio % [%]
O=C(O)c1ccc2[nH]c(-c3ccc(Cl)cc3Cl)cc(=O)c2c1 [Example 36] | 20.4

Same assay, conditions: 10 mg/kg orally, one hour before antigen, listed as 3-Chloro, Na salt

SMILES | PCA Inhibition Ratio % [%]
O=C(O)c1ccc2[nH]c(-c3cccc(Cl)c3)cc(=O)c2c1 [Example 31] | 24.4

Same assay, conditions: 10 mg/kg orally, one hour before antigen, listed as H, H

SMILES | PCA Inhibition Ratio % [%]
O=C(O)c1cccc2c(=O)cc(-c3ccccc3)[nH]c12 [Example 81] | 35.3

Same assay, conditions: Rattus norvegicus, po, 1 h, 10 mg/kg orally, one hour before antigen, read-out: PCA Inhibition Ratio %

SMILES | inhibition in vivo at 10 mg/kg [%]
Cc1ccc(-c2cc(=O)c3cccc(C(=O)OCCO)c3[nH]2)cc1 [Example 135] | 35
O=C(O)c1ccc2[nH]c(-c3ccccc3Br)cc(=O)c2c1 [Example 25] | 17.2
CCCCCCn1c(-c2ccccc2)cc(=O)c2cc(C(=O)OC)ccc21 [Example 19] | 27
CCOC(=O)COC(=O)c1cccc2c(=O)cc(-c3ccccc3Cl)[nH]c12 [Example 123] | 16
COC(=O)c1ccc2[nH]c(-c3ccc(Cl)cc3)cc(=O)c2c1 [Example 32] | 24.4
COc1ccc(-c2cc(=O)c3cc(C(=O)O)ccc3[nH]2)c(OC)c1 [Example 65] | 26.9
O=C(O)c1ccc2[nH]c(-c3ccc(Cl)cc3)cc(=O)c2c1 [Example 33] | 22.3
Cn1c(-c2ccccc2)cc(=O)c2cc(C(=O)O)ccc21 [Example 8, 1-Methyl-2-phenyl-4-quinolone-6-carboxylic acid] | 16.2
C=CCn1c(-c2ccccc2)cc(=O)c2cc(C(=O)O)ccc21 [Example 18] | 26.5
COC(=O)c1ccc2[nH]c(-c3ccc(C(C)C)cc3)cc(=O)c2c1 [Example 48] | 26.4
O=C(O)c1ccc2[nH]c(-c3cccc(C(F)(F)F)c3)cc(=O)c2c1 [Example 53] | 22.4
CCCCCc1ccc(-c2cc(=O)c3cc(C(=O)OC)ccc3[nH]2)cc1 [Example 50] | 19.4
CCOC(=O)c1cccc2c(=O)cc(-c3ccccc3F)[nH]c12 [2-Fluoro, Ethyl] | 28.5
O=C(O)c1ccc2[nH]c(-c3cccs3)cc(=O)c2c1 [Example 79] | 19.8
COC(=O)c1ccc2[nH]c(-c3ccccn3)cc(=O)c2c1 [Example 74] | 23.1
O=C(OCCCO)c1cccc2c(=O)cc(-c3ccccc3Cl)[nH]c12 [Example 115] | 12.4
O=C(OCCCCCO)c1cccc2c(=O)cc(-c3ccccc3Cl)[nH]c12 [Example 116] | 15
CCOc1ccccc1-c1cc(=O)c2cc(C(=O)O)ccc2[nH]1 [Example 59] | 15.8
Cc1ccccc1-c1cc(=O)c2cccc(C(=O)OCCO)c2[nH]1 [Example 134] | 10.8

SMILES | inhibition in vivo at 10 mg/kg [%]
CC(C)Oc1ccccc1-c1cc(=O)c2cc(C(=O)O)ccc2[nH]1 [Example 61] | 20.1
COC(=O)c1ccc2[nH]c(-c3ccccc3OC(C)C)cc(=O)c2c1 [Example 60] | 21.2
O=C(O)c1ccc2[nH]c(-c3cc(Cl)ccc3Cl)cc(=O)c2c1 [Example 40] | 25.4
Cc1c(-c2ccccc2)[nH]c2ccc(C(=O)O)cc2c1=O [Example 10] | 22.4
CCOC(=O)c1cccc2c(=O)cc(-c3ccc(Cl)cc3)[nH]c12 [Example 103] | 14.7
CCn1c(-c2ccccc2)cc(=O)c2cc(C(=O)OC)ccc21 [Example 13] | 18.9
O=C(O)c1ccc2c(c1)C(=O)CC(c1ccccc1)=N2 [Example 2, 2-Phenyl-4-quinolone-6-carboxylic acid] | 22.5
O=C(OCCO)c1cccc2c(=O)cc(-c3cccc(Cl)c3)[nH]c12 [Example 132] | 18.6
Cc1ccc(-c2cc(=O)c3cccc(C(=O)OCCO)c3[nH]2)cc1C [Example 137] | 20
COc1ccc(-c2cc(=O)c3cc(C(=O)O)ccc3[nH]2)cc1 [Example 63] | 18.4
COC(=O)c1cccc2c1N=C(c1ccccc1Cl)CC2=O [Example 101, Methyl 2-(2-chlorophenyl)-4-quinolone-8-carboxylate] | 17.4
COc1ccc(-c2cc(=O)c3cccc(C(=O)OCCO)c3[nH]2)cc1 [Example 138] | 12.7
CCc1ccccc1-c1cc(=O)c2cc(C(=O)OC)ccc2[nH]1 [Example 44] | 18
COC(=O)c1ccc2[nH]c(-c3ccc(OC)c(OC)c3)cc(=O)c2c1 [Example 66] | 25.4
CCOC(=O)c1cccc2c(=O)cc(-c3ccc(OC)cc3)[nH]c12 [4-Methoxy, Ethyl] | 3.2
COC(=O)c1ccc2[nH]c(-c3ccc(C)cc3C)cc(=O)c2c1 [Example 54] | 18.9
O=C(O)c1ccc2[nH]c(-c3ccc(Cl)cc3Cl)cc(=O)c2c1 [Example 35] | 39.4
CCCCCCCCc1ccc(-c2cc(=O)c3cccc(C(=O)OCC)c3[nH]2)cc1 [Example 96] | 21.5

The compounds below were run on SRS-A (slow reacting substance of anaphylaxis) contraction of ileum (assay: Anti-SRS-A action using ileus of guinea pigs). Details: Cavia porcellus, 5 min, 1/1000 mM; guinea pig ileum; SRS-A 20 units; compound five minutes before; read-out: 1/1000 mM SRS-A Inhibition Ratio %.
Type: cell-based, Hartley strain male guinea pigs
Method: as §1
Anti-SRS-A action (An anti-acton against slow reacting substance of anaphylaxis).
Hartley strain male guinea pigs (300 to 350 grams body weight) are killed and 1.0 to 1.5 cm of ileum is immeidiately excised from ileocecal parts and is suspended in 10 ml of Tyrode solution (95% 02 -5% CO2 saturation) containing 10^-7 g/ml of atropine and 10^-6 g/ml of pyrilamine. SRS-A (20 units) (the amount of SRS-A showing the same contradiction as 5 ng of histamine is defined as 1 unit) prepared by using sensitized guinea pig lung is given to cause contraction there. Then antagonistic action of test compounds treated five minutes ago against the contraction is measured and recorded via isotonic transducer. [formula] in which A' is a height of contraction of SRS-A+test compound and A is that of SRS-A.

SMILES | inhibition at 1 µM [%]
Cc1ccc(-c2cc(=O)c3cccc(C(=O)OCCO)c3[nH]2)cc1 [Example 135] | 27.3
O=C(O)c1ccc2[nH]c(-c3ccccc3Br)cc(=O)c2c1 [Example 25] | 25.7
CCCCCCn1c(-c2ccccc2)cc(=O)c2cc(C(=O)OC)ccc21 [Example 19] | 27.5
CCOC(=O)COC(=O)c1cccc2c(=O)cc(-c3ccccc3Cl)[nH]c12 [Example 123] | 17.4
COC(=O)c1ccc2[nH]c(-c3ccc(Cl)cc3)cc(=O)c2c1 [Example 32] | 20.6
COc1ccc(-c2cc(=O)c3cc(C(=O)O)ccc3[nH]2)c(OC)c1 [Example 65] | 27.3
O=C(O)c1ccc2[nH]c(-c3ccc(Cl)cc3)cc(=O)c2c1 [Example 33] | 22.5
Cn1c(-c2ccccc2)cc(=O)c2cc(C(=O)O)ccc21 [Example 8, 1-Methyl-2-phenyl-4-quinolone-6-carboxylic acid] | 22
C=CCn1c(-c2ccccc2)cc(=O)c2cc(C(=O)O)ccc21 [Example 18] | 24.3
COC(=O)c1ccc2[nH]c(-c3ccc(C(C)C)cc3)cc(=O)c2c1 [Example 48] | 24.2
O=C(O)c1ccc2[nH]c(-c3cccc(C(F)(F)F)c3)cc(=O)c2c1 [Example 53] | 30
CCCCCc1ccc(-c2cc(=O)c3cc(C(=O)OC)ccc3[nH]2)cc1 [Example 50] | 36
CCOC(=O)c1cccc2c(=O)cc(-c3ccccc3F)[nH]c12 [2-Fluoro, Ethyl] | 33.3
O=C(O)c1ccc2[nH]c(-c3cccs3)cc(=O)c2c1 [Example 79] | 19.5
COC(=O)c1ccc2[nH]c(-c3ccccn3)cc(=O)c2c1 [Example 74] | 25
O=C(OCCCO)c1cccc2c(=O)cc(-c3ccccc3Cl)[nH]c12 [Example 115] | 27.4
O=C(OCCCCCO)c1cccc2c(=O)cc(-c3ccccc3Cl)[nH]c12 [Example 116] | 23.7
CCOc1ccccc1-c1cc(=O)c2cc(C(=O)O)ccc2[nH]1 [Example 59] | 24.6
Cc1ccccc1-c1cc(=O)c2cccc(C(=O)OCCO)c2[nH]1 [Example 134] | 5.2

SMILES | inhibition at 1 µM [%]
CC(C)Oc1ccccc1-c1cc(=O)c2cc(C(=O)O)ccc2[nH]1 [Example 61] | 31.8
COC(=O)c1ccc2[nH]c(-c3ccccc3OC(C)C)cc(=O)c2c1 [Example 60] | 58.8
O=C(O)c1ccc2[nH]c(-c3cc(Cl)ccc3Cl)cc(=O)c2c1 [Example 40] | 27.5
Cc1c(-c2ccccc2)[nH]c2ccc(C(=O)O)cc2c1=O [Example 10] | 21
CCOC(=O)c1cccc2c(=O)cc(-c3ccc(Cl)cc3)[nH]c12 [Example 103] | 12.4
CCn1c(-c2ccccc2)cc(=O)c2cc(C(=O)OC)ccc21 [Example 13] | 25.4
O=C(O)c1ccc2c(c1)C(=O)CC(c1ccccc1)=N2 [Example 2, 2-Phenyl-4-quinolone-6-carboxylic acid] | 23.9
O=C(OCCO)c1cccc2c(=O)cc(-c3cccc(Cl)c3)[nH]c12 [Example 132] | 55.5
Cc1ccc(-c2cc(=O)c3cccc(C(=O)OCCO)c3[nH]2)cc1C [Example 137] | 10.8
COc1ccc(-c2cc(=O)c3cc(C(=O)O)ccc3[nH]2)cc1 [Example 63] | 23
COC(=O)c1cccc2c1N=C(c1ccccc1Cl)CC2=O [Example 101, Methyl 2-(2-chlorophenyl)-4-quinolone-8-carboxylate] | 14.7
COc1ccc(-c2cc(=O)c3cccc(C(=O)OCCO)c3[nH]2)cc1 [Example 138] | 25.4
O=C(O)c1cccc2c(=O)cc(-c3ccccc3)[nH]c12 [Example 81] | 26.4
CCc1ccccc1-c1cc(=O)c2cc(C(=O)OC)ccc2[nH]1 [Example 44] | 41.3
COC(=O)c1ccc2[nH]c(-c3ccc(OC)c(OC)c3)cc(=O)c2c1 [Example 66] | 25.7
CCOC(=O)c1cccc2c(=O)cc(-c3ccc(OC)cc3)[nH]c12 [4-Methoxy, Ethyl] | 20.3
COC(=O)c1ccc2[nH]c(-c3ccc(C)cc3C)cc(=O)c2c1 [Example 54] | 22.4
O=C(O)c1ccc2[nH]c(-c3ccc(Cl)cc3Cl)cc(=O)c2c1 [Example 35] | 25.6
CCCCCCCCc1ccc(-c2cc(=O)c3cccc(C(=O)OCC)c3[nH]2)cc1 [Example 96] | 23.8

Same assay, conditions: guinea pig ileum, SRS-A 20 units, compound five minutes before, 5 min, listed as 2,4-Dichloro, Na salt, 1 µM

SMILES | 1/1000 mM SRS-A Inhibition Ratio % [%]
O=C(O)c1ccc2[nH]c(-c3ccc(Cl)cc3Cl)cc(=O)c2c1 [Example 36] | 14.5

Same assay, conditions: guinea pig ileum, SRS-A 20 units, compound five minutes before, 5 min, listed as 3-Chloro, Na salt, 1 µM

SMILES | 1/1000 mM SRS-A Inhibition Ratio % [%]
O=C(O)c1ccc2[nH]c(-c3cccc(Cl)c3)cc(=O)c2c1 [Example 31] | 25.5
